Data taken from US8247211B2, “Glycopeptide antibiotics” (American Cyanamid Company, priority 2001, dated 2012).
Values after ≈ are worked out from the molar mass of the structure shown. Each block holds one compound with its values, some of them ahead of it.

What was measured:
Assay in all cases: In vitro antibacterial evaluation: minimum inhibitory concentration (MIC), broth dilution method
Format in all cases: cell-based
[1] = system: Escherichia coli
[2] = system: Enterococcus sp.
Outline: (§1)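 Using Muller-Hinton II […] and an inoculum of 5×10^5 CFU/mL, antibiotic dilutions from 64 down to 0.06 μg/mL were tested following NCCLS M7-A2. The MIC is the lowest concentration inhibiting growth, including in methicillin-, penicillin- or vancomycin-resistant clinical isolates.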

[3] = system: Streptococcus sp.; settings: broth dilution, 18 hours at 35° C.; for MIC Streptococcus pyogenes (GC 4563): strain GC 4563
Outline: as §1

[4] = system: Escherichia coli; remark: listed apart in the source
Outline: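 Inoculum: 5×10^5 CFU/mL. Range: 64-0.06 μg/mL. Medium: Muller-Hinton II […]; NCCLS M7-A2 broth dilution. Endpoint: lowest concentration inhibiting growth. Strains include methicillin-, penicillin- and/or vancomycin-resistant clinical isolates.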

[5] = system: Staphylococcus sp.; settings: 18 hours at 35° C.
Outline: as §1

[6] = Enterococcus faecalis (ATCC 29212)
[7] = Enterococcus faecalis (GC 4553)
[8] = Enterococcus faecalis (GC 4554)

MIC Escherichia coli (ATCC 25922) [1]: >64 µg/mL
MIC Enterococcus avium (GC 4558) ([2]; Enterococcus avium (GC 4558)): 64 µg/mL (≈ 46.2 µM)
MIC Enterococcus faecalis (ATCC 29212) [2, 6]: 64 µg/mL (≈ 46.2 µM)
MIC Enterococcus faecalis (GC 4553) [2, 7]: >64 µg/mL
MIC Enterococcus faecalis (GC 4554) [2, 8]: >64 µg/mL
MIC Enterococcus faecium (GC 2243) ([2]; Enterococcus faecium (GC 2243)): >64 µg/mL
MIC Enterococcus faecium (GC 4556) ([2]; Enterococcus faecium (GC 4556)): 64 µg/mL (≈ 46.2 µM)
MIC Enterococcus faecium (GC 4557) ([2]; Enterococcus faecium (GC 4557)): 8 µg/mL (≈ 5.77 µM)
MIC Streptococcus pyogenes (GC 4563) [3]: 4 µg/mL (≈ 2.89 µM)
MIC Streptococcus pyogenes (ID-3187) ([3]; strain ID-3187): 64 µg/mL (≈ 46.2 µM)
MIC Escherichia coli (GC 4559) [4]: >64 µg/mL
MIC Escherichia coli (GC 4560) [4]: 4 µg/mL (≈ 2.89 µM)
MIC Coagulase Negative Staphylococcus (GC 4547) [5]: 8 µg/mL (≈ 5.77 µM)
MIC Coagulase Negative Staphylococcus (GC 4547) ([5]; broth dilution): 8 µg/mL (≈ 5.77 µM)
MIC Coagulase Negative Staphylococcus (GC 4548) [5]: 8 µg/mL (≈ 5.77 µM)
MIC Coagulase Negative Staphylococcus (GC 4548) ([5]; broth dilution): 8 µg/mL (≈ 5.77 µM)
MIC Coagulase Negative Staphylococcus (GC 4549) [5]: 4 µg/mL (≈ 2.89 µM)
MIC Coagulase Negative Staphylococcus (GC 4549) ([5]; broth dilution): 4 µg/mL (≈ 2.89 µM)
MIC Coagulase Negative Staphylococcus (GC 4551) [5]: 8 µg/mL (≈ 5.77 µM)
MIC Coagulase Negative Staphylococcus (GC 4551) ([5]; broth dilution): 8 µg/mL (≈ 5.77 µM)
MIC Staphylococcus aureus (ATCC 29213) [5]: 16 µg/mL (≈ 11.5 µM)
MIC Staphylococcus aureus (ATCC 29213) ([5]; broth dilution): 16 µg/mL (≈ 11.5 µM)
MIC Staphylococcus aureus (GC 1131) [5]: 32 µg/mL (≈ 23.1 µM)
MIC Staphylococcus aureus (GC 1131) ([5]; broth dilution): 32 µg/mL (≈ 23.1 µM)
MIC Staphylococcus aureus (GC 4541) [5]: 16 µg/mL (≈ 11.5 µM)
MIC Staphylococcus aureus (GC 4541) ([5]; broth dilution): 16 µg/mL (≈ 11.5 µM)
MIC Staphylococcus aureus (GC 4542) [5]: 16 µg/mL (≈ 11.5 µM)
MIC Staphylococcus aureus (GC 4542) ([5]; broth dilution): 16 µg/mL (≈ 11.5 µM)
MIC Staphylococcus aureus (GC 4544) [5]: 8 µg/mL (≈ 5.77 µM)
MIC Staphylococcus aureus (GC 4544) ([5]; broth dilution): 8 µg/mL (≈ 5.77 µM)
MIC Staphylococcus aureus (GC 4545) [5]: 16 µg/mL (≈ 11.5 µM)
MIC Staphylococcus aureus (GC 4545) ([5]; broth dilution): 16 µg/mL (≈ 11.5 µM)
MIC Staphylococcus aureus-SMITH (GC 4543) [5]: 8 µg/mL (≈ 5.77 µM)
MIC Staphylococcus aureus-SMITH (GC 4543) ([5]; broth dilution): 8 µg/mL (≈ 5.77 µM)
Structure (SMILES): CC(C)CC(=O)OC1C(OC2C(CO)OC(Oc3ccc(CC4NC(=O)C(C(C)c5cccs5)NC(=O)CNC(=O)C(CO)NC(=O)C(C(O)C5CNC(=N)N5C5OC(CO)C(O)C(O)C5O)NC(=O)C(C(O)C5CNC(=N)N5)NC4=O)cc3)C(O)C2O)OC(CO)C(O)C1O (stereo not shown) [Example 265a, Cyclo[3-(2-thienyl)-2-aminobutanoyl-O-[4-O-[2-O-(3-methylbutanoyl)hexopyranosyl]hexopyranosyl]tyrosyl-3-(2-iminoimidazolidin-4-yl)seryl-3-(3-hexopyranosyl-2-iminoimidazolidin-4-yl)serylserylglycyl]]
MIC Staphylococcus haemolyticus (GC 4546) [5]: 8 µg/mL (≈ 5.77 µM)
MIC Staphylococcus haemolyticus (GC 4546) ([5]; broth dilution): 8 µg/mL (≈ 5.77 µM)

MIC Escherichia coli (ATCC 25922) [1]: >64 µg/mL
MIC Enterococcus avium (GC 4558) ([2]; Enterococcus avium (GC 4558)): 64 µg/mL (≈ 48.8 µM)
MIC Enterococcus faecalis (ATCC 29212) [2, 6]: >64 µg/mL
MIC Enterococcus faecalis (GC 4553) [2, 7]: >64 µg/mL
MIC Enterococcus faecalis (GC 4554) [2, 8]: >64 µg/mL
MIC Enterococcus faecalis (GC 6189) ([2]; Enterococcus faecalis (GC 6189)): >64 µg/mL
MIC Enterococcus faecium (GC 2243) ([2]; Enterococcus faecium (GC 2243)): >64 µg/mL
MIC Enterococcus faecium (GC 4556) ([2]; Enterococcus faecium (GC 4556)): >64 µg/mL
MIC Enterococcus faecium (GC 4557) ([2]; Enterococcus faecium (GC 4557)): 64 µg/mL (≈ 48.8 µM)
MIC Enterococcus faecalis (ATCC 29212) ([2]; broth dilution, 18 hours at 35° C., strain ATCC 29212): >64 µg/mL
MIC Enterococcus faecalis (GC 2242) ([2]; broth dilution, 18 hours at 35° C., strain GC 2242): >64 µg/mL
MIC Enterococcus faecium (GC 2243) ([2]; broth dilution, 18 hours at 35° C., strain GC 2243): >64 µg/mL
MIC Enterococcus faecalis (GC 2691) ([2]; broth dilution, 18 hours at 35° C., strain GC 2691): >64 µg/mL
MIC Enterococcus faecalis (GC 3059) ([2]; broth dilution, 18 hours at 35° C., strain GC 3059): >64 µg/mL
MIC Enterococcus faecalis (GC 4552) ([2]; broth dilution, 18 hours at 35° C., strain GC 4552): >64 µg/mL
MIC Enterococcus faecalis (GC 4553) ([2]; broth dilution, 18 hours at 35° C., strain GC 4553): >64 µg/mL
MIC Enterococcus faecalis (GC 4554) ([2]; broth dilution, 18 hours at 35° C., strain GC 4554): >64 µg/mL
MIC Enterococcus faecium (GC 4556) ([2]; broth dilution, 18 hours at 35° C., strain GC 4556): >64 µg/mL
MIC Enterococcus faecium (GC 4557) ([2]; broth dilution, 18 hours at 35° C., strain GC 4557): 64 µg/mL (≈ 48.8 µM)
MIC Enterococcus avium (GC 4558) ([2]; broth dilution, 18 hours at 35° C., strain GC 4558): 64 µg/mL (≈ 48.8 µM)
MIC Enterococcus faecalis (GC 6189) ([2]; broth dilution, 18 hours at 35° C., strain GC 6189): >64 µg/mL
MIC Streptococcus pneumoniae (ATCC 6301) ([3]; strain ATCC 6301): 64 µg/mL (≈ 48.8 µM)
MIC Streptococcus pneumoniae (GC 1894) ([3]; strain GC 1894): 64 µg/mL (≈ 48.8 µM)
MIC Streptococcus pyogenes (GC 4563) [3]: >64 µg/mL
MIC Streptococcus agalactiae (GC 4564) ([3]; strain GC 4564): >64 µg/mL
MIC Streptococcus pneumoniae (GC 4565) ([3]; strain GC 4565): 64 µg/mL (≈ 48.8 µM)
MIC Escherichia coli (GC 4559) [4]: >64 µg/mL
MIC Escherichia coli (GC 4560) [4]: >64 µg/mL
MIC Coagulase Negative Staphylococcus (GC 4547) [5]: >64 µg/mL
MIC Coagulase Negative Staphylococcus (GC 4547) ([5]; broth dilution): >64 µg/mL
MIC Coagulase Negative Staphylococcus (GC 4548) [5]: >64 µg/mL
MIC Coagulase Negative Staphylococcus (GC 4548) ([5]; broth dilution): >64 µg/mL
MIC Coagulase Negative Staphylococcus (GC 4549) [5]: >64 µg/mL
MIC Coagulase Negative Staphylococcus (GC 4549) ([5]; broth dilution): >64 µg/mL
MIC Coagulase Negative Staphylococcus (GC 4551) [5]: >64 µg/mL
MIC Coagulase Negative Staphylococcus (GC 4551) ([5]; broth dilution): >64 µg/mL
MIC Coagulase Negative Staphylococcus (GC 6257) [5]: >64 µg/mL
MIC Coagulase Negative Staphylococcus (GC 6257) ([5]; broth dilution): >64 µg/mL
MIC Staphylococcus aureus (ATCC 29213) [5]: >64 µg/mL
MIC Staphylococcus aureus (ATCC 29213) ([5]; broth dilution): >64 µg/mL
MIC Staphylococcus aureus (GC 1131) [5]: >64 µg/mL
MIC Staphylococcus aureus (GC 1131) ([5]; broth dilution): >64 µg/mL
MIC Staphylococcus aureus (GC 3051) [5]: >64 µg/mL
MIC Staphylococcus aureus (GC 3051) ([5]; broth dilution): >64 µg/mL
MIC Staphylococcus aureus (GC 3053) [5]: >64 µg/mL
MIC Staphylococcus aureus (GC 3053) ([5]; broth dilution): >64 µg/mL
MIC Staphylococcus aureus (GC 4541) [5]: >64 µg/mL
MIC Staphylococcus aureus (GC 4541) ([5]; broth dilution): >64 µg/mL
MIC Staphylococcus aureus (GC 4542) [5]: >64 µg/mL
MIC Staphylococcus aureus (GC 4542) ([5]; broth dilution): >64 µg/mL
MIC Staphylococcus aureus (GC 4544) [5]: >64 µg/mL
MIC Staphylococcus aureus (GC 4544) ([5]; broth dilution): >64 µg/mL
MIC Staphylococcus aureus (GC 4545) [5]: >64 µg/mL
MIC Staphylococcus aureus (GC 4545) ([5]; broth dilution): >64 µg/mL
MIC Staphylococcus aureus-SMITH (GC 4543) [5]: >64 µg/mL
MIC Staphylococcus aureus-SMITH (GC 4543) ([5]; broth dilution): >64 µg/mL
Structure (SMILES): CC(c1ccccc1)C1NC(=O)CNC(=O)C(CO)NC(=O)C(C(O)C2CNC(=N)N2C2OC(CO)C(O)C(O)C2O)NC(=O)C(C(O)C2CNC(=N)N2)NC(=O)C(Cc2ccc(OC3OC(CO)C(OC4OC(CO)C(O)C(O)C4O)C(O)C3O)cc2N)NC1=O (stereo not drawn) [Example 287, Cyclo[glycyl-β-methylphenylalanyl-2-amino-O-(4-O-hexopyranosylhexopyranosyl)tyrosyl-3-(2-iminoimidazolidin-4-yl)seryl-3-(3-hexopyranosyl-2-iminoimidazolidin-4-yl)serylseryl]]
MIC Staphylococcus haemolyticus (GC 4546) [5]: >64 µg/mL
MIC Staphylococcus haemolyticus (GC 4546) ([5]; broth dilution): >64 µg/mL
